From US11382328B2, “Rapid drug discovery methods for pathogen inactivation” (priority 2019, dated 2022)

System: E. coli strain W3110
Assay: Synergy assays: Biolog chemical sensitivity panels with Group IB metal, coefficient of drug interaction (CDI) from relative growth
Assay type: cell-based
Settings: for CDI (coefficient of drug interaction), gold + biocide: Gold (μM); for CDI (coefficient of drug interaction), copper mixed with biocide: Copper (mM) section
[1] = Silver 0.5 μM, biocide concentration 3 of 4
[2] = Silver 0.5 μM, biocide concentration 4 of 4
[3] = Silver 1.0 μM, biocide concentration 3 of 4
[4] = Silver 1.0 μM, biocide concentration 4 of 4
[5] = Silver 5.0 μM, biocide concentration 3 of 4
[6] = Silver 5.0 μM, biocide concentration 4 of 4
[7] = 1st of 3 copper concentrations (value not shown), 1st of four biocide concentrations
[8] = 1st of 3 copper concentrations (value not shown), 3rd of four biocide concentrations
[9] = 1st of 3 copper concentrations (value not shown), 4th of four biocide concentrations
[10] = 2nd of 3 copper concentrations (value not shown), 1st of four biocide concentrations
[11] = 2nd of 3 copper concentrations (value not shown), 2nd of four biocide concentrations
[12] = 2nd of 3 copper concentrations (value not shown), 3rd of four biocide concentrations
[13] = 2nd of 3 copper concentrations (value not shown), 4th of four biocide concentrations
[14] = 3rd of 3 copper concentrations (value not shown), 1st of four biocide concentrations
[15] = 3rd of 3 copper concentrations (value not shown), 2nd of four biocide concentrations
[16] = 3rd of 3 copper concentrations (value not shown), 3rd of four biocide concentrations
[17] = 3rd of 3 copper concentrations (value not shown), 4th of four biocide concentrations
[18] = Gold section of Table 5, first of three gold concentrations (μM, value not given), biocide concentration 2 of 4
[19] = Gold section of Table 5, second of three gold concentrations (μM, value not given), biocide concentration 2 of 4
[20] = Gold section of Table 5, third of three gold concentrations (μM, value not given), biocide concentration 2 of 4
[21] = Silver 0.5 μM, 1st of four biocide concentrations, E. coli
[22] = Silver 0.5 μM, 2nd of four biocide concentrations, E. coli
[23] = Silver 0.5 μM, 3rd of four biocide concentrations, E. coli
[24] = Silver 0.5 μM, 4th of four biocide concentrations, E. coli
[25] = Silver 1.0 μM, 1st of four biocide concentrations, E. coli
[26] = Silver 1.0 μM, 2nd of four biocide concentrations, E. coli
[27] = Silver 1.0 μM, 3rd of four biocide concentrations, E. coli
[28] = Silver 1.0 μM, 4th of four biocide concentrations, E. coli
[29] = Silver 5.0 μM, 1st of four biocide concentrations, E. coli
[30] = Silver 5.0 μM, 2nd of four biocide concentrations, E. coli
[31] = Silver 5.0 μM, 3rd of four biocide concentrations, E. coli

O=[N+]([O-])c1ccc(O)c([N+](=O)[O-])c1 [2,4-dintrophenol]
CDI (coefficient of drug interaction) (Copper (mM), 1st of 3 copper concentrations (head line not shown), biocide concentration 1 of 4, E. coli): 0.87
CDI (coefficient of drug interaction) (Copper (mM), 1st of 3 copper concentrations (head line not shown), biocide concentration 2 of 4, E. coli): 0.83
CDI (coefficient of drug interaction) (Copper (mM), 1st of 3 copper concentrations (head line not shown), biocide concentration 3 of 4, E. coli): 1.10
CDI (coefficient of drug interaction) (Copper (mM), 1st of 3 copper concentrations (head line not shown), biocide concentration 4 of 4, E. coli): Tox
CDI (coefficient of drug interaction) (Copper (mM), 2nd of 3 copper concentrations (head line not shown), biocide concentration 1 of 4, E. coli): 0.76
CDI (coefficient of drug interaction) (Copper (mM), 2nd of 3 copper concentrations (head line not shown), biocide concentration 2 of 4, E. coli): 0.64
CDI (coefficient of drug interaction) (Copper (mM), 2nd of 3 copper concentrations (head line not shown), biocide concentration 3 of 4, E. coli): 0.99
CDI (coefficient of drug interaction) (Copper (mM), 2nd of 3 copper concentrations (head line not shown), biocide concentration 4 of 4, E. coli): Tox
CDI (coefficient of drug interaction) (Copper (mM), 3rd of 3 copper concentrations (head line not shown), biocide concentration 1 of 4, E. coli): 0.50
CDI (coefficient of drug interaction) (Copper (mM), 3rd of 3 copper concentrations (head line not shown), biocide concentration 2 of 4, E. coli): 0.49
CDI (coefficient of drug interaction) (Copper (mM), 3rd of 3 copper concentrations (head line not shown), biocide concentration 3 of 4, E. coli): 1.14
CDI (coefficient of drug interaction) (Copper (mM), 3rd of 3 copper concentrations (head line not shown), biocide concentration 4 of 4, E. coli): Tox
CDI (coefficient of drug interaction), gold + biocide (first of 3 gold concentrations, biocide concentration 1 of 4): 1.05
CDI (coefficient of drug interaction), gold + biocide (first of 3 gold concentrations, biocide concentration 2 of 4): 1.02
CDI (coefficient of drug interaction), gold + biocide (first of 3 gold concentrations, biocide concentration 3 of 4): 1.27
CDI (coefficient of drug interaction), gold + biocide (first of 3 gold concentrations, biocide concentration 4 of 4): Tox
CDI (coefficient of drug interaction), gold + biocide (second of 3 gold concentrations, biocide concentration 1 of 4): 1.02
CDI (coefficient of drug interaction), gold + biocide (second of 3 gold concentrations, biocide concentration 2 of 4): 0.94
CDI (coefficient of drug interaction), gold + biocide (second of 3 gold concentrations, biocide concentration 3 of 4): 1.02
CDI (coefficient of drug interaction), gold + biocide (second of 3 gold concentrations, biocide concentration 4 of 4): Tox
CDI (coefficient of drug interaction), gold + biocide (third of 3 gold concentrations, biocide concentration 1 of 4): 0.85
CDI (coefficient of drug interaction), gold + biocide (third of 3 gold concentrations, biocide concentration 2 of 4): 0.74
CDI (coefficient of drug interaction), gold + biocide (third of 3 gold concentrations, biocide concentration 3 of 4): 0.61
CDI (coefficient of drug interaction), gold + biocide (third of 3 gold concentrations, biocide concentration 4 of 4): Tox
CDI (Silver 0.5 μM, biocide concentration 1 of 4): 0.72
CDI (Silver 0.5 μM, biocide concentration 2 of 4): 0.80
CDI [1]: 0.86
CDI [2]: Tox
CDI (Silver 1.0 μM, biocide concentration 1 of 4): 0.91
CDI (Silver 1.0 μM, biocide concentration 2 of 4): 0.83
CDI [3]: 1.02
CDI [4]: Tox
CDI (Silver 5.0 μM, biocide concentration 1 of 4): 1.10
CDI (Silver 5.0 μM, biocide concentration 2 of 4): 1.04
CDI [5]: 1.04
CDI [6]: Tox

protamine sulfate
CDI (coefficient of drug interaction), copper mixed with biocide [7]: 0.79
CDI (coefficient of drug interaction), copper mixed with biocide (1st of 3 copper concentrations (value not shown), 2nd of four biocide concentrations): Tox
CDI (coefficient of drug interaction), copper mixed with biocide [8]: Tox
CDI (coefficient of drug interaction), copper mixed with biocide [9]: Tox
CDI (coefficient of drug interaction), copper mixed with biocide [10]: 1.09
CDI (coefficient of drug interaction), copper mixed with biocide [11]: 1.26
CDI (coefficient of drug interaction), copper mixed with biocide [12]: Tox
CDI (coefficient of drug interaction), copper mixed with biocide [13]: Tox
CDI (coefficient of drug interaction), copper mixed with biocide [14]: 0.56
CDI (coefficient of drug interaction), copper mixed with biocide [15]: Tox
CDI (coefficient of drug interaction), copper mixed with biocide [16]: Tox
CDI (coefficient of drug interaction), copper mixed with biocide [17]: Tox
CDI (coefficient of drug interaction) [18]: 0.96
CDI (coefficient of drug interaction) (Gold section of Table 5, first of three gold concentrations (μM, value not given), biocide concentration 3 of 4): 0.49
CDI (coefficient of drug interaction) (Gold section of Table 5, first of three gold concentrations (μM, value not given), biocide concentration 4 of 4): Tox
CDI (coefficient of drug interaction) (Gold section of Table 5, second of three gold concentrations (μM, value not given), biocide concentration 1 of 4): 0.99
CDI (coefficient of drug interaction) [19]: 0.94
CDI (coefficient of drug interaction) (Gold section of Table 5, second of three gold concentrations (μM, value not given), biocide concentration 3 of 4): 2.22
CDI (coefficient of drug interaction) (Gold section of Table 5, second of three gold concentrations (μM, value not given), biocide concentration 4 of 4): Tox
CDI (coefficient of drug interaction) (Gold section of Table 5, third of three gold concentrations (μM, value not given), biocide concentration 1 of 4): 0.92
CDI (coefficient of drug interaction) [20]: 1.09
CDI (coefficient of drug interaction) (Gold section of Table 5, third of three gold concentrations (μM, value not given), biocide concentration 3 of 4): 1.56
CDI (coefficient of drug interaction) (Gold section of Table 5, third of three gold concentrations (μM, value not given), biocide concentration 4 of 4): Tox
CDI (coefficient of drug interaction), silver + biocide [21]: 1.10
CDI (coefficient of drug interaction), silver + biocide [22]: 1.15
CDI (coefficient of drug interaction), silver + biocide [23]: Tox
CDI (coefficient of drug interaction), silver + biocide [24]: Tox
CDI (coefficient of drug interaction), silver + biocide [25]: 0.95
CDI (coefficient of drug interaction), silver + biocide [26]: 1.00
CDI (coefficient of drug interaction), silver + biocide [27]: Tox
CDI (coefficient of drug interaction), silver + biocide [28]: Tox
CDI (coefficient of drug interaction), silver + biocide [29]: 0.84
CDI (coefficient of drug interaction), silver + biocide [30]: 0.90
CDI (coefficient of drug interaction), silver + biocide [31]: Tox
CDI (coefficient of drug interaction), silver + biocide (Silver 5.0 μM, 4th of four biocide concentrations, E. coli): Tox

N.N.N.N.N.N.[Cl-].[Cl-].[Cl-].[Co+3] [hexammine cobalt (III) chloride]
CDI (coefficient of drug interaction), copper mixed with biocide [7]: 1.06
CDI (coefficient of drug interaction), copper mixed with biocide [8]: 1.19
CDI (coefficient of drug interaction), copper mixed with biocide [9]: 1.51
CDI (coefficient of drug interaction), copper mixed with biocide [10]: 0.93
CDI (coefficient of drug interaction), copper mixed with biocide [11]: 1.05
CDI (coefficient of drug interaction), copper mixed with biocide [12]: 1.05
CDI (coefficient of drug interaction), copper mixed with biocide [13]: 1.59
CDI (coefficient of drug interaction), copper mixed with biocide [14]: 0.94
CDI (coefficient of drug interaction), copper mixed with biocide [15]: 0.90
CDI (coefficient of drug interaction), copper mixed with biocide [16]: 0.73
CDI (coefficient of drug interaction), copper mixed with biocide [17]: 0.87
CDI (coefficient of drug interaction) (Gold 5 μM, biocide concentration 1 of 4, E. coli): 1.09
CDI (coefficient of drug interaction) (Gold 5 μM, biocide concentration 4 of 4, E. coli): 1.10
CDI (coefficient of drug interaction) (Gold 25 μM, biocide concentration 1 of 4, E. coli): 1.09
CDI (coefficient of drug interaction) (Gold 25 μM, biocide concentration 3 of 4, E. coli): 1.08
CDI (coefficient of drug interaction) (Gold 25 μM, biocide concentration 4 of 4, E. coli): 1.25
CDI (coefficient of drug interaction), silver + biocide [21]: 0.98
CDI (coefficient of drug interaction), silver + biocide [22]: 1.05
CDI (coefficient of drug interaction), silver + biocide [23]: 0.97
CDI (coefficient of drug interaction), silver + biocide [24]: 0.82
CDI (coefficient of drug interaction), silver + biocide [25]: 0.98
CDI (coefficient of drug interaction), silver + biocide [26]: 1.03
CDI (coefficient of drug interaction), silver + biocide [27]: 1.04
CDI (coefficient of drug interaction), silver + biocide [28]: 0.39
CDI (coefficient of drug interaction), silver + biocide [29]: 1.26
CDI (coefficient of drug interaction), silver + biocide [30]: 1.43
CDI (coefficient of drug interaction), silver + biocide [31]: 1.00
CDI (coefficient of drug interaction) ([…], biocide concentration 3 of 4, E. coli): 1.25
CDI (coefficient of drug interaction) ([…], biocide concentration 4 of 4, E. coli): 1.62

CN(C)S(=O)(=O)N(SC(F)(Cl)Cl)c1ccccc1 [dichlofluanid]
CDI (coefficient of drug interaction), copper mixed with biocide [9]: Tox
CDI (coefficient of drug interaction), copper mixed with biocide [10]: Tox
CDI (coefficient of drug interaction), copper mixed with biocide [13]: Tox
CDI (coefficient of drug interaction), copper mixed with biocide [17]: Tox
CDI (coefficient of drug interaction) [18]: Tox
CDI (coefficient of drug interaction) [19]: Tox
CDI (coefficient of drug interaction) [20]: Tox
CDI (coefficient of drug interaction), silver + biocide [22]: Tox
CDI (coefficient of drug interaction), silver + biocide [25]: Tox
CDI (coefficient of drug interaction), silver + biocide [26]: Tox
CDI (coefficient of drug interaction), silver + biocide [29]: Tox
CDI (coefficient of drug interaction), silver + biocide [30]: Tox

CCn1cc(C(=O)O)c(=O)c2cc(F)c(N3CCNC(C)C3)c(F)c21 (centres unmarked) [lomefloxacin]
CDI (coefficient of drug interaction) (Gold 50 μM, biocide concentration 4 of 4, E. coli): Tox

Cl.N[C@@H](CCl)C(=O)O [β-Chloro-L-alanine HCl, β-chloro-L-alanine hydrochloride]
CDI [1]: Tox
CDI [2]: Tox
CDI [3]: Tox
CDI [4]: Tox
CDI [5]: Tox
CDI [6]: Tox
